Columns and labels:
TNKS1 = target: T1, TNKS1 (Homo sapiens, UniProt O95271); experiment: TNKS1 Assay B (auto-parsylation, [3H]-NAD+ SPA); assay type: biochemical; settings: 6 nM TNKS1, auto-parsylation, over night at room temperature
T1 construct: purchased BPS Bioscience, San Diego, USA 80579 (TNKS1 Histone Ribosylation Assay Kit)
T1 sequence (O95271 1-1327): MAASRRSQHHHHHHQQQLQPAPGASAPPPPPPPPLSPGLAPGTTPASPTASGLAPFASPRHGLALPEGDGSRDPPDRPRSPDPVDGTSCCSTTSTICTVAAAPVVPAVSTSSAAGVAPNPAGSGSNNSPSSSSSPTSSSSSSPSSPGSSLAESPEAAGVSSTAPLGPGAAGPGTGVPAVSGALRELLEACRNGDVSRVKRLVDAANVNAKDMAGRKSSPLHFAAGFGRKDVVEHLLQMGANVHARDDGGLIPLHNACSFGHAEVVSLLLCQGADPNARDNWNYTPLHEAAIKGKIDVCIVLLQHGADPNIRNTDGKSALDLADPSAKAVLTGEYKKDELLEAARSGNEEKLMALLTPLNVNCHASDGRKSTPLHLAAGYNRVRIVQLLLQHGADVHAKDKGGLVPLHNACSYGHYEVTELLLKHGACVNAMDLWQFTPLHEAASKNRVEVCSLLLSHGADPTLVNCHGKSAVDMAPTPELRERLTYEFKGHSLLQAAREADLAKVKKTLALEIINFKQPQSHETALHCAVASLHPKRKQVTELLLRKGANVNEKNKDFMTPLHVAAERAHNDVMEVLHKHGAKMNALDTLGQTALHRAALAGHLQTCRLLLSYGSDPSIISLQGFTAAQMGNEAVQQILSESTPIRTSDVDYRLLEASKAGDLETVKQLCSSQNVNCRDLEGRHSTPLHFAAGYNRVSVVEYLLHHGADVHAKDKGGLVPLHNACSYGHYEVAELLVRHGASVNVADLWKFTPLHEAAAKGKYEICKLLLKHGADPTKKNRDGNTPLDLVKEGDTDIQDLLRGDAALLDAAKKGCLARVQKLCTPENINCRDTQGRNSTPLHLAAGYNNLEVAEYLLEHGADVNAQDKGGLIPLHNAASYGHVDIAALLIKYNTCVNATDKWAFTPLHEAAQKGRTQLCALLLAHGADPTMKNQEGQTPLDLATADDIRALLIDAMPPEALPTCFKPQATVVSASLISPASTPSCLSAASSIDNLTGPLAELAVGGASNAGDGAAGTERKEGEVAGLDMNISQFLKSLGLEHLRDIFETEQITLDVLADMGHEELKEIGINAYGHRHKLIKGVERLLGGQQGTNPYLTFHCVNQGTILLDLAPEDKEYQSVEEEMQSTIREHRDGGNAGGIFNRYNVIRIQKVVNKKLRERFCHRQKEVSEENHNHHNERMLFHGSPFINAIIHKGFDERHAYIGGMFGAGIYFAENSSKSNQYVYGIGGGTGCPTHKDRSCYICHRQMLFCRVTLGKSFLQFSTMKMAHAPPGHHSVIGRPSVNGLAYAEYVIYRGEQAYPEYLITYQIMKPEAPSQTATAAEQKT

[1] = tested on: HEK293 cells cotransfected with the FOP control vector; experiment: HEK293 FOP assay (control reporter with non-functional TCF elements); assay type: cell-based; settings: Homo sapiens, 16 hours
Procedure, shortened: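 Compound series from 50 μM down to 15 nM, prediluted in DMSO then 50-fold into CAFTY buffer (pH 7.4, 2 mM Ca2+, 0.01% BSA), tested alongside TOP cells on a Geneticin-selected HEK293 FOP line whose TCF elements are replaced by a random sequence; recombinant human Wnt-3a applied at 2500-5 ng/ml.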

IC50 (TNKS1) [nM] | Structure (SMILES) | IC50 [1] [nM]
520 | COCc1cc(C)nc2c(C(=O)N[C@H]3CC[C@H](C(=O)Nc4ccc(F)cc4Cl)CC3)cnn12 [Example 111, N-{trans-4-[(2-chloro-4-fluorophenyl)carbamoyl]cyclohexyl}-7-(methoxymethyl)-5-methylpyrazolo[1,5-a]pyrimidine-3-carboxamide] | ≥ 50000
110 | Cc1nc2c(C(=O)N[C@H]3CC[C@H](C(=O)Nc4ccc(F)cc4Cl)CC3)cnn2c2c1CCC2 [Example 113, N-{trans-4-[(2-chloro-4-fluorophenyl)carbamoyl]cyclohexyl}-5-methyl-7,8-dihydro-6H-cyclopenta[e]pyrazolo[1,5-a]pyrimidine-3-carboxamide] | ≥ 50000
860 | CC(O)CNc1ccc2ncc(C(=O)N[C@H]3CC[C@H](C(=O)Nc4ccc(F)cc4Cl)CC3)n2n1 (stereo partly drawn) [Example 114, N-{trans-4-[(2-chloro-4-fluorophenyl)carbamoyl]cyclohexyl}-6-[(2-hydroxypropyl)amino]imidazo[1,2-b]pyridazine-3-carboxamide] | ≥ 50000
160 | CNC(=O)c1[nH]cnc1C(=O)NC12CCC(C(=O)Nc3ccc(F)cc3Cl)(CC1)CC2 [Example 115, N^4-{4-[(2-chloro-4-fluorophenyl)carbamoyl]bicyclo[2.2.2]oct-1-yl}-N^5-methyl-1H-imidazole-4,5-dicarboxamide] | ≥ 50000
45 | O=C(NCC1CCCO1)c1nc[nH]c1C(=O)N[C@H]1CC[C@H](C(=O)Nc2cc(F)ccc2Cl)CC1 (stereo partly drawn) [Example 129, N^5-{trans-4-[(2-chloro-5-fluorophenyl)carbamoyl]cyclohexyl}-N^4-(tetrahydrofuran-2-ylmethyl)-1H-imidazole-4,5-dicarboxamide] | 39000
34 | O=C(N[C@H]1CC[C@H](C(=O)Nc2cc(F)c(F)cc2Cl)CC1)c1cnn2cccnc12 [Example 130, N-{trans-4-[(2-chloro-4,5-difluorophenyl)carbamoyl]cyclohexyl}pyrazolo[1,5-a]pyrimidine-3-carboxamide] | ≥ 50000
64 | O=C(N[C@H]1CC[C@H](C(=O)Nc2cc(F)c(F)cc2Cl)CC1)c1cnc2cccnn12 [Example 132, N-{trans-4-[(2-chloro-4,5-difluorophenyl)carbamoyl]cyclohexyl}imidazo[1,2-b]pyridazine-3-carboxamide] | ≥ 50000
140 | O=C(N[C@H]1CC[C@H](C(=O)Nc2c(F)cc(F)cc2Cl)CC1)c1cnc2cccnn12 [Example 133, N-{trans-4-[(2-chloro-4,6-difluorophenyl)carbamoyl]cyclohexyl}imidazo[1,2-b]pyridazine-3-carboxamide] | ≥ 50000
74 | Cc1cc(C)n2ncc(C(=O)N[C@H]3CC[C@H](C(=O)Nc4cc(F)c(F)cc4Cl)CC3)c2n1 [Example 134, N-{trans-4-[(2-chloro-4,5-difluorophenyl)carbamoyl]cyclohexyl}-5,7-dimethylpyrazolo[1,5-a]pyrimidine-3-carboxamide] | ≥ 50000

The remaining lines, values behind:

Structure (SMILES) | IC50 (TNKS1) [nM] | IC50 [1] [nM]
COCc1cc(C)n2ncc(C(=O)N[C@H]3CC[C@H](C(=O)Nc4c(F)cc(F)cc4Cl)CC3)c2n1 [Example 112, N-{trans-4-[(2-chloro-4,6-difluorophenyl)carbamoyl]cyclohexyl}-5-(methoxymethyl)-7-methylpyrazolo[1,5-a]pyrimidine-3-carboxamide] | 150 | ≥ 50000
CNC(=O)c1[nH]cnc1C(=O)NC12CCC(C(=O)Nc3c(F)cc(F)cc3Cl)(CC1)CC2 [Example 116, N^4-{4-[(2-chloro-4,6-difluorophenyl)carbamoyl]bicyclo[2.2.2]oct-1-yl}-N^5-methyl-1H-imidazole-4,5-dicarboxamide] | 580 | 8700
O=C(NC12CCC(C(=O)Nc3ccc(F)cc3Cl)(CC1)CC2)c1cnn2cccnc12 [Example 117, N-{4-[(2-chloro-4-fluorophenyl)carbamoyl]bicyclo[2.2.2]oct-1-yl}pyrazolo[1,5-a]pyrimidine-3-carboxamide] | 340 | ≥ 50000
Cc1cc(NC(=O)C23CCC(NC(=O)c4cnn5cccnc45)(CC2)CC3)c(Cl)cc1F [Example 118, N-{4-[(2-chloro-4-fluoro-5-methylphenyl)carbamoyl]bicyclo[2.2.2]oct-1-yl}pyrazolo[1,5-a]pyrimidine-3-carboxamide] | 89 | ≥ 50000
O=C(NC12CCC(C(=O)Nc3c(F)cc(F)cc3Cl)(CC1)CC2)c1cnn2cccnc12 [Example 119, N-{4-[(2-chloro-4,6-difluorophenyl)carbamoyl]bicyclo[2.2.2]oct-1-yl}pyrazolo[1,5-a]pyrimidine-3-carboxamide] | 560 | ≥ 50000
O=C(NC12CCC(C(=O)Nc3cnccc3Cl)(CC1)CC2)c1cnn2cccnc12 [Example 120, N-{4-[(4-chloropyridin-3-yl)carbamoyl]bicyclo[2.2.2]oct-1-yl}pyrazolo[1,5-a]pyrimidine-3-carboxamide] | 210 | 7100
O=C(NC12CCC(C(=O)Nc3ccc(F)cc3Cl)(CC1)CC2)c1cnc2cccnn12 [Example 121, N-{4-[(2-chloro-4-fluorophenyl)carbamoyl]bicyclo[2.2.2]oct-1-yl}imidazo[1,2-b]pyridazine-3-carboxamide] | 400 | ≥ 50000
Cc1cc(NC(=O)C23CCC(NC(=O)c4cnc5cccnn45)(CC2)CC3)c(Cl)cc1F [Example 122, N-{4-[(2-chloro-4-fluoro-5-methylphenyl)carbamoyl]bicyclo[2.2.2]oct-1-yl}imidazo[1,2-b]pyridazine-3-carboxamide] | 240 | ≥ 50000
O=C(NC12CCC(C(=O)Nc3c(F)cc(F)cc3Cl)(CC1)CC2)c1cnc2cccnn12 [Example 123, N-{4-[(2-chloro-4,6-difluorophenyl)carbamoyl]bicyclo[2.2.2]oct-1-yl}imidazo[1,2-b]pyridazine-3-carboxamide] | 1000 | ≥ 50000
O=C(NC12CCC(C(=O)Nc3cnccc3Cl)(CC1)CC2)c1cnc2cccnn12 [Example 124, N-{4-[(4-chloropyridin-3-yl)carbamoyl]bicyclo[2.2.2]oct-1-yl}imidazo[1,2-b]pyridazine-3-carboxamide] | 230 | 8900
Cc1cc(C)n2ncc(C(=O)NC34CCC(C(=O)Nc5ccc(F)cc5Cl)(CC3)CC4)c2n1 [Example 125, N-{4-[(2-chloro-4-fluorophenyl)carbamoyl]bicyclo[2.2.2]oct-1-yl}-5,7-dimethylpyrazolo[1,5-a]pyrimidine-3-carboxamide] | 120 | ≥ 50000
Cc1cc(C)n2ncc(C(=O)NC34CCC(C(=O)Nc5cc(C)c(F)cc5Cl)(CC3)CC4)c2n1 [Example 126, N-{4-[(2-chloro-4-fluoro-5-methylphenyl)carbamoyl]bicyclo[2.2.2]oct-1-yl}-5,7-dimethylpyrazolo[1,5-a]pyrimidine-3-carboxamide] | 82 | ≥ 50000
Cc1cc(C)n2ncc(C(=O)NC34CCC(C(=O)Nc5c(F)cc(F)cc5Cl)(CC3)CC4)c2n1 [Example 127, N-{4-[(2-chloro-4,6-difluorophenyl)carbamoyl]bicyclo[2.2.2]oct-1-yl}-5,7-dimethylpyrazolo[1,5-a]pyrimidine-3-carboxamide] | 320 | ≥ 50000
Cc1cc(C)n2ncc(C(=O)NC34CCC(C(=O)Nc5cnccc5Cl)(CC3)CC4)c2n1 [Example 128, N-{4-[(4-chloropyridin-3-yl)carbamoyl]bicyclo[2.2.2]oct-1-yl}-5,7-dimethylpyrazolo[1,5-a]pyrimidine-3-carboxamide] | 88 | ≥ 50000

From patent publication US20180148418A1, “AMIDO-SUBSTITUTED CYCLOHEXANE DERIVATIVES” (Bayer Pharma Aktiengesellschaft, priority 2015, published 2018)
